Patent US12685709B2, “Solid solution compositions and use in chronic inflammation” (Infirst Healthcare Limited, priority 2011, dated 2026)
Values joined by “and” are separate entries in the source; they are usually repeats but may differ in a detail not shown here. Equal values may be shown once.

Tests used:
[1] = system: intestinal erosion murine model; assay: Animal model for intestinal erosion (gastric irritation score); format: in vivo, Sprague-Dawley rats; conditions: for Mean Ulceration Score: 4 hours after treatment, score 0-4
Protocol: To assess whether a pharmaceutical composition disclosed herein reduced gastric irritation, experiments were conducted using an intestinal erosion murine model.
Sprague-Dawley rats were divided into seven experimental groups containing five animals each. After fasting overnight, the animals were challenged with one with one of seven different treatments. Group A was a control in which each mouse was orally administered 1% methylcellulose/0.5% polysorbate 80 vehicle only. Group B was a control in which each mouse was orally administered solvent/adjuvant vehicle only (gavage of 10% ethanol and 90% linseed oil). Group C was a control in which each mouse was orally administered 150 mg/kg aspirin. Group D was a control in which each mouse was orally administered 100 mg/kg ibuprofen suspended in 1% methylcellulose/0.5% polysorbate 80. Group E was the experimental group in which each mouse was administered a pharmaceutical composition disclosed herein (BC1054-100) comprising 100 mg/kg of ibuprofen, 10% ethanol, and 90% linseed oil. Group F was a control in which each mouse was orally administered 100 mg/kg ibuprofen suspended in 1% methylcellulose/0.5% polysorbate 80. Group G was the experimental group in which each mouse was administered a pharmaceutical composition disclosed herein (BC1054-200) comprising 200 mg/kg of ibuprofen, 10% ethanol, and 90% linseed oil. Animals were sacrificed 4 hours after treatment and the stomachs were examined for degree of hemorrhage and severity of mucosal erosive lesions. Gastric irritation was scored as follows: 0, no lesions; 1, hyperemia; 2, one or two slight lesions; 3, more than two slight lesions or severe lesions; and 4, very severe lesions. A score of 50% or more relative to Group C (aspirin-treated control group), which was set to 100%, was considered a positive score for gastric irritation.

[2] = system: TBS-induced colitis murine model; assay: Animal model for inflammatory bowel disease (TNBS-induced colitis); format: in vivo, C57BI/6 male mice; conditions: for Mean Colon Length / Mean Colon Weight / Mean Animal Weight: TNBS colitis; for Mean Colon Length / Mean Colon Weight / Endoscopy Colitis Severity Score Day 5: day 5; for Mean Animal Weight: oral dosing day -1 to day 5, Prednisolone 3 mg/kg, ibuprofen 20 mg/kg, BC1054-20 20 mg/kg, BC1054-30 30 mg/kg; for Endoscopy Colitis Severity Score Day 3 / Endoscopy Colitis Severity Score Day 5: video endoscopy, scale 0 to 4
Protocol: To assess the effectiveness of a pharmaceutical composition disclosed herein in treating an inflammatory bowel disease, experiments were conducted using a […] colitis murine model.
C57BI/6 male mice (6-7 weeks old) were divided into seven experimental groups containing at least ten animals each. On day 0, colitis was induced in mice from Groups B-G by intrarectal administration of 100 μL of TNBS (4 mg) in 50% ethanol under isoflurane anesthesia. Animals were dosed either once or three times a day from day −1 to day 5 with one of seven different treatments. Group A was a control in which each mouse was orally administered ethanol vehicle only. Group B was a control in which each mouse was orally administered 1% methylcellulose vehicle only. Group C was a control in which each mouse was orally administered solvent/adjuvant vehicle only (gavage of 10% ethanol and 90% linseed oil). Group D was a control in which each mouse was orally administered 3 mg/kg of Prednisolone. Group E was a control in which each mouse was orally administered 20 mg/kg of ibuprofen suspended in 1% methylcellulose (1 ml/kg) (no adjuvant). Group F was the experimental group in which each mouse was administered a pharmaceutical composition disclosed herein (BC1054-20) comprising 20 mg/kg of ibuprofen, 10% ethanol, and 90% linseed oil. Group G was the experimental group in which each mouse was administered a pharmaceutical composition disclosed herein (BC1054-30) comprising 30 mg/kg of ibuprofen, 10% ethanol, and 90% linseed oil. All animals were weighed daily and assessed visually for the presence of diarrhea and/or bloody stool. On day 3 and on day 5 colitis severity was assessed in all animals using video endoscopy, where images were taken and colitis severity scored visually by a blinded observer on a scale from 0 to 4 as follows: 0, normal; 1, loss of vascularity; 2, loss of vascularity and friability; 3, friability and erosions; and 4, ulcerations and bleeding. Following endoscopy on day 5, animals were sacrificed and the colon removed and its length and weight measured. Serum samples were obtained and the colon was fixed in 10% formalin. An additional piece of colon tissue was collected, weighed, and snap frozen in liquid nitrogen.

[3] = system: α-collagen antibody induced arthritis (ACAIA) murine model; assay: Alpha-collagen antibody induced arthritis (ACAIA) model for systemic arthritis; format: in vivo, Male BALB/c mice; conditions: for mean paw thickness compared to vehicle-treated Group 1M (significance): ANOVA with Tukey post hoc
Protocol: To assess the effectiveness of a pharmaceutical composition disclosed herein in treating arthritis, experiments were conducted using an α-collagen antibody induced arthritis (ACAIA) murine model that mimics a systemic arthritis like rheumatoid arthritis.
Male BALB/c mice were divided into eight groups, each containing 10 animals. To induce arthritic symptoms, mice from all eight groups were intravenously injected with 200 μL of an antibody solution comprising a 2 mg cocktail of four α-collagen II monoclonal antibodies (ARTHRITOMAB™, MD Biosciences) on study day 0 (study commencement), followed by a 200 μL intraperitoneal injection of a solution containing 100 μg lipopolysaccharide (LPS) on study day 3. Each group was subjected daily to a control or test treatment administered from day 0-11 as follows: Group 1 mice (1M) were treated orally with a vehicle preparation containing 1% methyl cellulose administered thrice daily; Group 2 mice (2M) were treated intraperitoneally with a positive control preparation containing 10 mg/kg etanercept (ENBREL®, Wyeth) administered once daily; Group 3 mice (3M) were treated orally with a 20 mg/kg test liquid formulation comprising ibuprofen and rapeseed oil (BC1054 LF-RO) administered once daily; Group 4 mice (4M) were treated orally with a 20 mg/kg test liquid formulation comprising ibuprofen and rapeseed oil (BC1054 LF-RO) administered thrice daily; Group 5 mice (5M) were treated orally with a 20 mg/kg test liquid formulation comprising ibuprofen and a glyceryl monolinoleate (MAISINE™ 35-1, Gattefosse) (BC1054 LF-MA) administered thrice daily; Group 6 mice (6M) were treated orally with a 20 mg/kg test solid formulation comprising ibuprofen and theobroma oil (BC1054 LF-TO) administered thrice daily; Group 7 mice (7M) were treated orally with a control preparation 1 comprising 20 mg/kg of ibuprofen administered thrice daily; and Group 8 mice (8M) were treated orally with a 20 mg/kg test solid formulation comprising ibuprofen and a waxy solid having a melting point of between 37° C. to 41° C. and comprising a mixture of saturated C10-C18 triglycerides ([…]® 39/01, Gattefosse) (BC1054 LF-GE) administered thrice daily (Table 6). The dose administered was calculated based on the assumption that each animal weighed, on average, 20 g. A fixed volume of 100 μL was administered to each mouse, except those animals receiving the positive control (2M) were administered 200 μL.
Arthritic development and clinical examinations were monitored in all mice on study day 0 shortly before arthritis induction and subsequently on study days 3-7, 9, 10 and 12 (study termination). To access arthritic development, both an arthritis score and paw thickness (plethysmography) measurements were obtained. The arthritis score was based on visual assessment of arthritis reactions using a 0-4 scale in ascending order of severity with Grade 0 indicating no arthritis reaction; Grade 1 indicating mild, but definite redness and swelling of the ankle/wrist or apparent redness and swelling limited to individual digits, regardless of the number of affected digits; Grade 2 indicating moderate to severe redness and swelling of the ankle/wrist; Grade 3 indicating redness and swelling of the entire paw including digits; and Grade 4 indicating maximally inflamed limb with involvement of multiple joints. Paw thickness was measured for both hind paws just above the foot pad and below the calcaneum using a dial caliper (Kroeplin, Munich, Germany). Mean values for paw thickness measurements were determined, and where appropriate, analysis of the data by ANOVA with Tukey post hoc analysis was applied to determine significance of treatment effects.
Clinical examinations included changes in body weight, condition of skin, fur, eyes, mucous membranes, occurrence of secretions and excretions (e.g. diarrhea), and autonomic activity (e.g. lacrimation, salivation, piloerection, pupil size, unusual respiratory pattern). […]

[4] = system: U937 monocyte cell line differentiated into macrophages; conditions: % therapeutic compound taken up by macrophages after 45 minutes incubation, HPLC; N=2
Protocol: Cultures of U937 monocyte cell line were grown in RPMI-1640 supplemented with 10% fetal calf serum (FCS) until the cells reached 90% confluent monolayer. These cells were then treated with PMA and incubated in a 37° C. incubator under 5% carbon dioxide until the cells differentiated into macrophages. […] After incubation for 45 minutes the test solution supernatants were removed and saved for analysis, and the cells were then washed in PBS several times and lysed using two cycles of freeze-thawing. Therapeutic compound concentration present in the test solution, test solution supernatant, and cell lyste fractions was measured by HPLC. The percentage therapeutic compound taken up by the macrophages was calculated using the following formula: % therapeutic compound adsorbed=100×(compound mass recovered from cell lysate)/(compound mass delivered in test solution−compound mass recovered from test solution supernatant).

[5] = day 6, 20 mg/kg PO thrice daily (Groups 4M-8M)
[6] = statistical comparison, doses as E9

CC(C)Cc1ccc(C(C)C(=O)O)cc1 (stereo not drawn) [ibuprofen]
% Aspirin Erosion ([1]; 100 mg/kg ibuprofen (Groups D, E), relative to Group C, 50% or more = positive score for gastric irritation): 75% and 75^1%
Mean Ulceration Score ([1]; 100 mg/kg ibuprofen oral (Groups D, E)): 3
% Aspirin Erosion ([1]; 200 mg/kg ibuprofen (Groups F, G), relative to Group C, 50% or more = positive score for gastric irritation): 95% and 95^1%
Mean Ulceration Score ([1]; 200 mg/kg ibuprofen oral (Groups F, G)): 3.8
Mean Colon Length ([2]; doses as E9): 7.9 cm
Mean Colon Weight ([2]; doses as E9): 267 mg
Mean Animal Weight [2]: 23.82 g
Endoscopy Colitis Severity Score Day 3 ([2]; doses as E9): 2.7
Endoscopy Colitis Severity Score Day 5 ([2]; doses as E9): 2.2
mean paw thickness compared to vehicle-treated Group 1M (significance) ([3]; 20 mg/kg PO thrice daily (Groups 4M-8M)): No significant differences were observed
Mean Rear Paw Thickness ([3]; day 0, 20 mg/kg PO thrice daily (Groups 4M-8M), 20 mg/kg): 1.71±0.02 mm and 1.71 mm
Mean Rear Paw Thickness ([3]; day 3, 20 mg/kg PO thrice daily (Groups 4M-8M)): 1.72 mm
Mean Rear Paw Thickness ([3]; day 4, 20 mg/kg PO thrice daily (Groups 4M-8M)): 1.64 mm
Mean Rear Paw Thickness ([3]; day 5, 20 mg/kg PO thrice daily (Groups 4M-8M)): 1.71 mm
Arthritis incidence [3, 5]: 8/10
Mean Rear Paw Thickness [3, 5]: 1.90 mm
Mean Rear Paw Thickness ([3]; day 7, 20 mg/kg PO thrice daily (Groups 4M-8M), 20 mg/kg): 2.15±0.10 mm and 2.15 mm
Mean Rear Paw Thickness ([3]; day 9, 20 mg/kg PO thrice daily (Groups 4M-8M)): 2.08 mm
Mean Rear Paw Thickness ([3]; day 10, 20 mg/kg PO thrice daily (Groups 4M-8M)): 2.07 mm
Mean Rear Paw Thickness ([3]; day 12, 20 mg/kg PO thrice daily (Groups 4M-8M), 20 mg/kg): 2.02±0.08 mm and 2.02 mm

Etanercept
mean paw thickness compared to vehicle-treated Group 1M (significance) ([3]; once daily dosing (Groups 2M, 3M)): significantly decreased paw volume compared to the positive control mice on days 9, 10 and 12
Mean Rear Paw Thickness ([3]; day 0, once daily (Etanercept 10 mg/kg IP, Group 2M; BC1054 LF-RO 20 mg/kg PO, Group 3M)): 1.70±0.02 mm and 1.70 mm
Mean Rear Paw Thickness ([3]; day 3, once daily (Etanercept 10 mg/kg IP, Group 2M; BC1054 LF-RO 20 mg/kg PO, Group 3M)): 1.73 mm
Mean Rear Paw Thickness ([3]; day 4, once daily (Etanercept 10 mg/kg IP, Group 2M; BC1054 LF-RO 20 mg/kg PO, Group 3M)): 1.64 mm
Mean Rear Paw Thickness ([3]; day 5, once daily (Etanercept 10 mg/kg IP, Group 2M; BC1054 LF-RO 20 mg/kg PO, Group 3M)): 1.63 mm
Mean Rear Paw Thickness ([3]; day 6, once daily (Etanercept 10 mg/kg IP, Group 2M; BC1054 LF-RO 20 mg/kg PO, Group 3M)): 1.96±0.05 mm and 1.96 mm
Arthritis incidence ([3]; day 6, once daily dosing (Groups 2M, 3M)): 9/10
Mean Rear Paw Thickness ([3]; day 7, once daily (Etanercept 10 mg/kg IP, Group 2M; BC1054 LF-RO 20 mg/kg PO, Group 3M)): 1.95 mm
Mean Rear Paw Thickness ([3]; day 9, once daily (Etanercept 10 mg/kg IP, Group 2M; BC1054 LF-RO 20 mg/kg PO, Group 3M)): 1.88 mm
Mean Rear Paw Thickness ([3]; day 10, once daily (Etanercept 10 mg/kg IP, Group 2M; BC1054 LF-RO 20 mg/kg PO, Group 3M)): 1.80 mm
Mean Rear Paw Thickness ([3]; day 12, once daily (Etanercept 10 mg/kg IP, Group 2M; BC1054 LF-RO 20 mg/kg PO, Group 3M)): 1.77±0.02 mm and 1.77 mm
Arthritis incidence ([3]; day 12, once daily dosing (Groups 2M, 3M)): 1/10

C[C@]12C=CC(=O)C=C1CC[C@@H]1[C@@H]2[C@@H](O)C[C@@]2(C)[C@H]1CC[C@]2(O)C(=O)CO [Prednisolone]
Mean Colon Length ([2]; doses as E9): 8.4 cm
Mean Colon Weight ([2]; doses as E9): 267 mg
Mean Animal Weight [2]: 23.33 g
mean colitis scores compared to Group B (TNBS-treated control group) [2, 6]: statistically significant reduced mean colitis scores on both day 3 and day 5
mean colon length compared to Group B (TNBS-treated control group) [2, 6]: statistically significant increase in mean colon length
Endoscopy Colitis Severity Score Day 3 ([2]; doses as E9): 2.3^7
Endoscopy Colitis Severity Score Day 5 ([2]; doses as E9): 1.7^8

CC(C)Cc1ccc(C(C)C(=O)O)cc1 (stereo not drawn) [Formulation C, ibuprofen free acid]
Mean Mass Compound Uptake [4]: 0.4%

CC(=O)Oc1ccccc1C(=O)O [aspirin]
% Aspirin Erosion ([1]; Group C, 150 mg/kg aspirin, set to 100%): (100) %
Mean Ulceration Score ([1]; Group C, 150 mg/kg oral): 4
